Source: BindingDB's records for doi:10.1021/jm000275p (Merck Research Laboratories, 2001)

Tests used:
[1] = molecular target: Gonadotropin-releasing hormone receptor (Canis familiaris); assay: In vitro inhibition of binding to gonadotropin-releasing hormone receptor in dog
[2] = molecular target: Gonadotropin-releasing hormone receptor (Macaca mulatta); assay: In vitro inhibition of gonadotropin-releasing hormone receptor in rhesus monkey
[3] = molecular target: Gonadotropin-releasing hormone receptor (Canis familiaris); assay: Functional antagonism at gonadotropin-releasing hormone receptor in dog (PI turnover)
[4] = molecular target: Gonadotropin-releasing hormone receptor (Macaca mulatta); assay: Functional antagonism at the rhesus monkey gonadotropin-releasing hormone receptor

IC50 [1]: 60 nM
IC50 [2]: 0.5 nM
IC50 [3]: 350 nM
IC50 [4]: 7 nM
Compound: Cc1cc(-c2c(OCC[C@@H]3CCN3)c3cc(C(=O)Nc4ccncn4)c(Cl)cc3[nH]c2=O)cc(C)c1C [4-(2-Azetidin-2-yl-ethoxy)-7-chloro-2-oxo-3-(3,4,5-trimethyl-phenyl)-1,2-dihydro-quinoline-6-carboxylic acid pyrimidin-4-ylamide]
